In patent US8703419B2, “Method for diagnosis/prognosis of cancers using an epigenetic marker consisting of a specific single CpG site in TTP promoter and treatment of cancers by regulating its epigenetic status” (Korea Research Institute of Bioscience and Biotechnology, priority 2009, dated 2014):

Columns and labels:
Assay type in all cases: cell-based, human
[1] = test system: RNAPII binding to the TTP locus; assay: ChIP analysis of RNAPII binding to the TTP locus; conditions: PLC/PRF/5 cells; regardless of AzadC treatment
Description: To establish the molecular mechanism of epigenetic regulation of TTP, the present inventors estimated the levels of different forms of phosphorylated RNAPII (RNA polymerase II) proteins bound to the TTP locus by ChIP (chromatin immunoprecipitation) analysis, i.e., unphosphorylated form (unP) as a measure of transcriptional initiation, and those phosphorylated at serine 5 (pS5) and serine 2 (pS2) of the carboxy-terminal repeat domain as a measure of promoter escape/capping and transcriptional elongation, respectively.
(§1) ChIP analysis was performed using a specific assay kit (Millipore, USA) according to manufacturer's specifications. SK-Hep1 and PLC/PRF/5 cells were pre-treated or not treated with AzadC for 72 hours, to which TGFβ1 was additionally treated or not treated. The cells were treated with formaldehyde, leading to the binding of DNA to the protein (DNA conjugated protein), followed by cell lysis. After DNA fractionation, the antibody to RNAPII protein shown in Table 7 was added thereto, followed by reaction at 4° C. for overnight. The antibody was isolated by adding 50 μl of Protein A/G PLUS-Agarose. At this time, the DNA specifically bound to the antibody was purified. The purified DNA proceeded to PCR using the primer sets of Table 8.

[2] = test system: TTP expression in PLC/PRF/5 and SK-Hep1 cells; assay: TGFβ1-mediated TTP induction with or without AzadC (RT-PCR)
Procedure: (§2) Total RNA was extracted from the HCC cell lines by using RNeasy mini kit (QIAGEN, USA). Distilled water was added to 1 μg of the total RNA and 1 μl of oligo-d(T) (Invitrogen, USA, 0.5 μg/μl) to make the total volume of the mixture 50 μl, followed by RT-PCR in AccuPower RT-premix (Bioneer, Korea). Before RT-PCR, cDNA was synthesized as follows: at 70° C. for 5 minutes, at 4° C. for 5 minutes, at 42° C. for 60 minutes, at 94° C. for 5 minutes, and at 4° C. for 5 minutes to produce cDNA. PCR was performed by using the obtained cDNA (3˜5 μl) or distilled water (negative control) as a template with the primer set as shown in Table 1 and PCR Master Mix (Promega, USA). PCR conditions were as follows: pre-denaturation at 95° C. for 5 minutes, denaturation at 95° C. for 45 seconds, annealing at 65° C. for […], polymerization at 72° C. for 45 seconds, 35 cycles from denaturation to polymerization, final extension at 72° C. for 5 minutes, and cooling at 4° C. The amplified product was quantified via standardization with β-actin.
TGFβ1 (R&D systems, USA) was treated thereto at the concentration of 5 μg/l for 0, 0.5, 1, 1.5, 3, 6, and 12 hours.

[3] = test system: c-Myc mRNA; assay: c-Myc mRNA level after TGFβ1 (RT-PCR)
Procedure: as §2
SK-Hep1 and PLC/PRF/5 cells which had been pre-treated or not treated with AzadC for 72 hours were treated additionally with TGFβ1 for 0, 0.5, 1.0, 1.5, 2.0, and 2.5 hours. Then RT-PCR was performed with the cells by using the primer sets of Table 10 in the same manner as described in Example <1-2>.

[4] = test system: PLC/PRF/5 cells; assay: Cell cycle by FACS after TTP knock-down
Procedure: (§3) Lentiviral-based short hairpin RNAs (shRNAs) against TTP (Sigma-Aldrich; […] CTTTTT: SEQ. ID. NO. 40) or control shRNA targeting eGFP (Sigma-Aldrich) were transfected into PLC/PRF/5 cells and selected with 1 mg/l puromycin (Invitrogen). The selected PLC/PRF/5 transfectants were additionally treated with TGFβ1 for 0, 0.5, 1.0, 1.5, 2.0, and 2.5 hours. To investigate the half-life of c-Myc mRNA, actinomycin D was treated for 0, 15, 30, […], 60, and 75 minutes, and RT-PCR was performed with the cells.
FACS was performed with the cells treated in Example <7-4>.

[5] = test system: TTP promoter; assay: TTP promoter luciferase reporter assay; conditions: SK-Hep1 cells; no AzadC
Procedure: To confirm that TTP expression is directly controlled by methylation of the #2 CpG site, the present inventors examined the transcriptional activity of the TTP promoter region in relation to the methylation status of the #2 CpG site using luciferase reporter assays.
Luciferase assays were performed using the Promega Luciferase Assay System (Promega, USA), according to the manufacturer's protocol. Luciferase reporter constructs were generated by amplifying TTP promoter regions from normal human genomic DNA (BioChain, USA) using the primer sets shown in Table 5 according to the method of Example <1-2>.
As a result, wild-type promoter (WT), a single base-substituted promoter (C→T), and TRR-deleted promoter (Del) were constructed. These promoters were cloned into the KpnI/BglII sites of pGL3-basic vector (Promega, USA). Ligated products were amplified in E. coli. After purification, the ligated products were transfected into SK-Hep1 cells by using LipofectAMINE Plus reagent (Invitrogen). Specifically, the luciferase reporter constructs (0.25 μg) were co-transfected with a control plasmid (0.05 μg) encoding renilla into 1×10^5 cells/well in 12-well plates. At that time, AzadC was treated 12 hours before the transfection. After treating with TGFβ1, luciferase activities were measured using a luminometer (Berthold Lumat LB9501, Bad Wildbad, Germany). […]

[6] = test system: phospho-SMAD2/3 binding to TRR; assay: ChIP analysis of phosphorylated SMAD2/3 binding to TRR; conditions: both SK-Hep1 and PLC/PRF/5 cell lines
Procedure: as §1
The present inventors performed ChIP analysis using the antibodies shown in Table 9 in the same manner as described in Example <6-1> in order to investigate the bindings of phosphorylated SMAD2/3, transcription inhibitor, methyl DNA binding protein, and DNMT (DNA methyltransferase), which are important factors involved in TGFβ1 signal transduction, in TRR (a). At this time, input was a part of cell extract obtained after fixing the cells in formaldehyde and DNA fractionation, which is the status right before immunoprecipitation with antibody.

[7] = test system: acetylation of histones H3 and H4 at TRR; assay: ChIP analysis of histone H3 and H4 acetylation at TRR; conditions: PLC/PRF/5 cells; regardless of AzadC pretreatment; P<0.05
Procedure: as §1
Chromatin is basically composed of histones and DNA. The histone status, that is, the methylation or acetylation status of histones is involved in the regulation of gene expression. Transcriptional activity is additionally dependent on the acetylation level of histones H3 and H4 in the promoter region. Moreover, TGFβ1-mediated transcription activation requires H3 acetylation (Ross S et al., EMBO J 25:4490-4502, 2006). Therefore, information about the transcriptional activity of the promoter region can be obtained by using the antibody against acetylated histone. […]

[8] = test system: SK-Hep1 and PLC/PRF/5 cells; assay: Cell growth by MTT assay and crystal violet staining; conditions: TGFβ1 96 hours
Procedure: (§4) MTT assay and crystal violet staining were performed with the cells. MTT (methylthiazoletetrazolium; Sigma-Aldrich) assay was performed by the informed technique (Mosmann T, J Immunol Methods 65:55-63, 1983) using μQuant Universal Microplate Spectrophotometer (Biotek Instruments, USA) at 570 nm. For crystal violet staining, the cells were fixed in 10% formaldehyde and stained in 10% crystal violet solution for 10 min at room temperature.

[9] = test system: PLC/PRF/5 cells; assay: Cell growth after TTP knock-down (MTT, crystal violet staining)
Procedure: as §4, with “SK-Hep1 and PLC/PRF/5 cells were pre-treated or not treated with AzadC for 72 hours, to which TGFβ1 was additionally treated or not treated for 96 hours. MTT assay” for “MTT assay”
as §3
Western blotting was performed with the cells treated in Example <7-4> in the same manner as described in Example <7-2-1> to investigate the levels of c-Mycand p21^Cip1. MTT and crystal violet staining were also performed in the same manner as described in Example <7-2-2>.

[10] = test system: c-Myc mRNA in PLC/PRF/5 cells; assay: c-Myc mRNA degradation and half-life after TTP knock-down (RT-PCR, actinomycin D)
Procedure: as §3

[11] = PLC/PRF/5 cells (#2 CpG not methylated), TGFβ1 5 μg/l
[12] = PLC/PRF/5 cells, both before and after TGFβ1 treatment

Substance	binding of RNAPII proteins to the TTP locus [1]	time of peak TTP expression after TGFβ1 treatment [2, 11]	time to increase of TTP expression after TGFβ1 treatment [2, 11]	induction of TTP expression ([2]; SK-Hep1 cells (high #2 CpG methylation), TGFβ1 alone 5 μg/l)	c-Myc level ([3]; PLC/PRF/5 cells, TGFβ1 0-2.5 hours)	c-Myc level decrease ([3]; SK-Hep1 cells, TGFβ1 without AzadC)	size of the G2/M population following TGFβ1 treatment ([4]; PLC/PRF/5 control cells (control shRNA))	responsiveness of wild-type TTP promoter (WT) to TGFβ1, luciferase [5]	binding of phospho-SMAD2/3 to TRR [6]	acetylation of histones H3 and H4 at TRR (region a) [7]	cell growth [8]	growth inhibitory effect of TGFβ [9]	growth rate [9]	size of the G2/M population following TGFβ1 treatment ([4]; PLC/PRF/5 TTP knock-down cells)	relative size of the G1 and sub G1 populations [4, 12]	relative size of the S phase population [4, 12]	half-life of c-Myc mRNA ([10]; in the presence of actinomycin D, control 24 min)	c-Myc mRNA degradation after TGFβ1 treatment ([10]; shRNA-mediated knock-down of TTP)
TGFβ1: Transforming growth factor beta 1, a multifunctional cytokine (R&D systems)	significantly increased the binding of RNAPII proteins	1 h	≤ 30 min	not induced	rapidly decreased from 1 hour after TGFβ1 treatment	not in SK-Hep1 cells	decreased significantly	not responsive	TGFβ1-dependent binding of phospho-SMAD2/3 to TRR was observed	significantly increased	phenotypic growth inhibition							
TTP knock-down: Lentiviral-based short hairpin RNA against TTP (Sigma-Aldrich), SEQ. ID. NO. 40, transfected into PLC/PRF/5 cells (CCGGGCTTCGCCAGAGCATCAGCTTCTCGAGAAGCTGATGCTCTGGCGAAGCTTTTT; expressed or natural sequence)												blocking the growth inhibitory effect of TGFβ	elevated the growth rate	remained unchanged	decreased	increased	51 min	significantly retarded c-Myc mRNA degradation
